Values quoted from earlier work, collected in patent publication US20190274302A1, “COMPOSITIONS FOR ACTIVE TREATING AND […] DISEASES” (priority 2018, published 2019).

Conditions: 1 mM

SMILES | pH
CC(=O)O [acetic acid] | 3.91
O=C1O[C@H]([C@@H](O)CO)C(O)=C1O [ascorbic acid] | 3.59
O=C(O)c1ccccc1 [benzoic acid] | 3.66
O=C(O)/C=C(/CC(=O)O)C(=O)O [cis-aconitic acid] | 3.05
O=C(O)CC(O)(CC(=O)O)C(=O)O [citric acid] | 3.24
O=CO [formic acid] | 3.47
CC(O)C(=O)O (stereo not drawn) [lactic acid] | 3.51
O=C(O)CC(O)C(=O)O (stereo not drawn) [malic acid] | 3.33
O=C(O)CC(=O)O [malonic acid] | 3.17
O=C(O)C(=O)O [oxalic acid] | 3.00
Oc1ccccc1 [phenol] | 6.47
CCC(=O)O [propanoic acid] | 3.96
O=C(O)c1ccccc1O [salicylic acid] | 3.21
O=C(O)/C=C(\CC(=O)O)C(=O)O [trans-aconitic acid] | 3.14

Same assay, conditions: 10 mM

SMILES | pH
CC(=O)O [acetic acid] | 3.39
O=C1O[C@H]([C@@H](O)CO)C(O)=C1O [ascorbic acid] | 3.04
O=C(O)c1ccccc1 [benzoic acid] | 3.12
O=C(O)/C=C(/CC(=O)O)C(=O)O [cis-aconitic acid] | 2.21
O=C(O)CC(O)(CC(=O)O)C(=O)O [citric acid] | 2.62
O=CO [formic acid] | 2.91
CC(O)C(=O)O (stereo not drawn) [lactic acid] | 2.96
O=C(O)CC(O)C(=O)O (stereo not drawn) [malic acid] | 2.74
O=C(O)CC(=O)O [malonic acid] | 2.50
O=C(O)C(=O)O [oxalic acid] | 2.09
Oc1ccccc1 [phenol] | 5.99
CCC(=O)O [propanoic acid] | 3.44
O=C(O)c1ccccc1O [salicylic acid] | 2.57
O=C(O)/C=C(\CC(=O)O)C(=O)O [trans-aconitic acid] | 2.48

Same assay, conditions: 100 mM

SMILES | pH
CC(=O)O [acetic acid] | 2.88
O=C1O[C@H]([C@@H](O)CO)C(O)=C1O [ascorbic acid] | 2.53
O=C(O)c1ccccc1 [benzoic acid] | 2.60
O=C(O)/C=C(/CC(=O)O)C(=O)O [cis-aconitic acid] | 1.55
O=C(O)CC(O)(CC(=O)O)C(=O)O [citric acid] | 2.08
O=CO [formic acid] | 2.38
CC(O)C(=O)O (stereo not drawn) [lactic acid] | 2.44
O=C(O)CC(O)C(=O)O (stereo not drawn) [malic acid] | 2.21
O=C(O)CC(=O)O [malonic acid] | 1.94
O=C(O)C(=O)O [oxalic acid] | 1.31
Oc1ccccc1 [phenol] | 5.49
CCC(=O)O [propanoic acid] | 2.94
O=C(O)c1ccccc1O [salicylic acid] | 2.02
O=C(O)/C=C(\CC(=O)O)C(=O)O [trans-aconitic acid] | 1.92
